According to paper PMC12921516 (ACS Bio & Med Chem Au, 2025):
“Also recorded” adds a separate entry of the source.

How the values were obtained:
[1] = molecular target: T1, hPTP1B1–400 (Homo sapiens, UniProt P18031); assay: PTP1B inhibition, pNPP hydrolysis, long form; type: biochemical; settings: pNPP substrate, 15 min 37 °C, pH 6.8; ± S.D
T1 construct: h PTP1B 1–400 IC 50 (μM ± S.D); made in house
T1 sequence (P18031 1-400): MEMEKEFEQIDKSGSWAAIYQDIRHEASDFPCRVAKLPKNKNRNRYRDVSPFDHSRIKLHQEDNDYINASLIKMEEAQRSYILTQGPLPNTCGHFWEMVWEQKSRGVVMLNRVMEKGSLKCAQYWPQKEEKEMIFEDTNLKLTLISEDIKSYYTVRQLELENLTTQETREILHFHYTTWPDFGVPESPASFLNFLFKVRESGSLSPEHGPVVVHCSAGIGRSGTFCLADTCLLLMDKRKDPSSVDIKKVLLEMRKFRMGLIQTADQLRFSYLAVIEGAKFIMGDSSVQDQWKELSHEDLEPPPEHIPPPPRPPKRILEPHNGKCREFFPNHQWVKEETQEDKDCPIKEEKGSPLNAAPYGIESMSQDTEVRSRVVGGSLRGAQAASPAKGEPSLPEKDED

[2] = molecular target: T2, hPTP1B1–285 (Homo sapiens, UniProt P18031); assay: PTP1B inhibition, pNPP hydrolysis, short form; type: biochemical; settings: pNPP substrate; ± S.D
T2 construct: h PTP1B 1–285 IC 50 (μM ± S.D); made in house
T2 sequence (P18031 1-285): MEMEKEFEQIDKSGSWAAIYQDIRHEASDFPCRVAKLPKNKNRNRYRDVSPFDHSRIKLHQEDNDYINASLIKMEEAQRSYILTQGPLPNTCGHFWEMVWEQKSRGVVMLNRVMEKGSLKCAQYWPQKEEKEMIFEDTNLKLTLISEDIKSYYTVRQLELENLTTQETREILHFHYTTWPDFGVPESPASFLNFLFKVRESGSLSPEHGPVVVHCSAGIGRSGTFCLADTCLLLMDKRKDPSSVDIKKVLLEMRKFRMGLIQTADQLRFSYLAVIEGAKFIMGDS
Procedure: In contrast to analogous regions in other PTP family proteins, the intrinsically disordered C-terminal domain of PTP1B (residues 301–400) contains two α-helices, α8′ (residues 320–327) and α9′ (residues 360–377), which may act as binding sites for various compounds.
Aliquots of 0–10 μL of the test compounds (triplicate) were taken and incubated for 15 min at 37 °C with 85 μL of Tris buffer solution (50 mM, pH 6.8) containing PTP1B enzyme and 5 μL of p-nitrophenyl phosphate substrate (pNPP, 10 mM). The absorbance of the hydrolysis product, p-nitrophenol (pNP), was measured at 405 nm using a 96-microplate absorbance reader (Accuris SmartReader 96). The inhibitory activity was determined according to eq . %enzyme=(A405b/A405c)×100 1 Where: % enzyme is the percentage of inhibition for PTP1B or TCPTP
The IC50 was calculated using regression analysis, eq : %inhibition=A100/1+(I/IC50)^s 2 Where: A100: Maximum inhibition

[3] = Cytotoxicity, Sulforhodamine B assay; type: cell-based, human; settings: human, HFF-1 normal foreskin fibroblast cells; HFF-1 proliferation, 48-h incubation, 0.78 μM to 100 μM
Procedure: Given the significance of a drug candidate’s toxicity in relation to its inhibition potential, a cytotoxicity assay was conducted using Normal Human Foreskin Fibroblasts (HFF-1).
All assays were carried out in triplicate. Cell proliferation was determined by the Sulforhodamine B assay, and the half-maximal cytotoxic concentration (CC50) was determined by Probit analysis.

[4] = system: STZ-induced diabetic CD-1 mice; assay: Insulin tolerance test (ITT); type: in vivo; settings: for glycemia variation in ITT: single intragastric dose 50 mg/kg, insulin 0.75 IU after 30 min
Procedure: The studies were carried out on compounds 4b, 4g, and 5g using both normoglycemic CD1 mice and a mouse model of noninsulin-dependent diabetes mellitus (NIDDM). An oral glucose tolerance test (OGTT) was conducted on the normoglycemic mice to evaluate the hypoglycemic activity of the compounds, while an insulin tolerance test (ITT) was performed on hyperglycemic CD1 mice to assess the compounds' capacity to enhance insulin sensitivity in streptozotocin-induced diabetic mice. Pioglitazone and GA were included as positive controls. […] Healthy six-week-old male CD-1 mice, weighing between 30 and 40 g, were maintained at a temperature of 25 ± 2 °C, under a 12-h light/dark cycle and 45-65% humidity throughout the experimental period. The mice were provided with a rodent pelleted diet (Harlan Laboratories, Indianapolis, USA) and had access to water ad libitum. Sixteen hours before the experiment, all mice were fasted but still had free access to water. All animal procedures were conducted in accordance with the Mexican Federal Regulations for Animal Experimentation and Care (SAGARPA, NOM-062-ZOO-1999, Mexico) and received approval from the Institutional Animal Care and Use Committee, following guidelines outlined in the US National Institutes of Health publication (No. 85-23, revised 1985). Streptozotocin (STZ) was dissolved in citrate buffer (pH 4.5), while nicotinamide was dissolved in a normal physiological saline solution. The noninsulin-dependent diabetes (NIDD) mouse model was induced in overnight-fasted mice through a single intraperitoneal injection of STZ (100 mg/kg). Nicotinamide was administered 15 min prior, at a dose of 20 mg/kg via intraperitoneal injection. […] Roche). […] Animals were categorized into five groups, each consisting of four mice (n = 4). The experimental groups received an oral suspension of compounds 4b, 4g, and 5g, prepared in a 10% Tween 20/water solution, at a dosage of 50 mg/kg body weight. A control group was treated with only the 10% Tween 20 solution. The final group was administered pioglitazone at a dose of 45 mg/kg, which is recognized as a reference drug for insulin sensitization. To evaluate glucose levels, blood samples were collected from the tails of the mice at 0, 30, 60, 90, and 120 min after the administration of the vehicle, test compound, or drug. Blood glucose concentration was measured using a commercial glucometer (Accu-Chek, Performa; Roche) and the enzymatic glucose dehydrogenase method. The percentage variation in glycemia was calculated by comparing the selected postadministration glycemia (G x ) with the initial value (G0) using the following formula: %[…]=[(Gx-G0)/G0]×100 where G0 represents the initial glycemia values and Gx indicates the glycemia values at +30, + 60, + 90, and +120 min, respectively. To evaluate the ability of GA derivatives to enhance insulin sensitivity in STZ-induced diabetic CD-1 mice, compounds 4b, 4g, and 5g were tested. Glycyrrhetinic acid (GA) and Pioglitazone served as positive controls. The GA derivatives and the positive controls were administered to the diabetic animals, followed by the administration of human rapid-acting insulin (0.75 IU) after 30 min. Subsequently, glucose levels were measured every 15 min.

Row | IC50 [1] | IC50 [2] | SMILES | CC50 at 48 h [3] | ITT activity compared to GA ([4]; 50 mg/kg) | glycemia variation in ITT ([4]; 50 mg/kg) | glycemia variation in ITT [4] | ITT activity compared to pioglitazone ([4]; 50 mg/kg vs pioglitazone 45 mg/kg) | glycemic variation in ITT compared with normoglycemic mice ([4]; 50 mg/kg, after the 45th minute)
1 | 1.58 ± 0.07 µM | 7.03 ± 0.28 µM | CC1(C)c2[nH]c3ccc(OC(F)F)cc3c2C[C@]2(C)[C@H]3C(=O)C=C4[C@@H]5C[C@@](C)(C(=O)O)CC[C@]5(C)CC[C@@]4(C)[C@]3(C)CC[C@@H]12 [compound 4b, (20β)-5′-(Difluoromethoxy)-11-oxo-1′H-oleana-2,12-dieno[3,2-b]indol-29-oic Acid] | 98.7 ± 2 µM | greater potency than GA | significantly reduced glucose levels; also recorded: reduce glycemia variation starting from the 15th minute |  |  | 
2 | 2.06 ± 0.12 µM | 9.11 ± 0.58 µM | CC1(C)c2[nH]c3ccc(S(N)(=O)=O)cc3c2C[C@]2(C)[C@H]3C(=O)C=C4[C@@H]5C[C@@](C)(C(=O)O)CC[C@]5(C)CC[C@@]4(C)[C@]3(C)CC[C@@H]12 [compound 4g, (20β)-5′-Sulfamoyl-11-oxo-1′H-oleana-2,12-dieno[3,2-b]indol-29-oic Acid] | > 100 µM |  |  | reduce glycemia variation starting from the 15th minute |  | 
3 | 1.48 ± 0.18 µM | 5.51 ± 0.16 µM | CC1(C)c2c(cnn2-c2ccc(S(N)(=O)=O)cc2)C[C@]2(C)[C@H]3C(=O)C=C4[C@@H]5C[C@@](C)(C(=O)O)CC[C@]5(C)CC[C@@]4(C)[C@]3(C)CC[C@@H]12 [compound 5g, (20β)-11-Oxo-2′-(4-sulfamoylphenyl)-2′H-oleana-2,12-dieno[3,2-c]pyrazol-29-oic Acid] | > 100 µM | greater potency than GA | significantly reduced glucose levels; also recorded: reduce glycemia variation starting from the 15th minute |  | superior activity compared to pioglitazone | no significant differences in glycemic variation
